Data taken from ChEMBL document CHEMBL5728816, “Thienopyridine inhibitors of RIPK2” (2021).

Target: Receptor-interacting serine/threonine-protein kinase 2 (Homo sapiens, UniProt O43353)
Test: TR-FRET Assay: All data was collected using a standard TR-FRET screening assay: LanthaScreen Tracer 199 at 50 nM, Eu-anti-His Antibody at 2 nM, 5 nM RIPK2 enzyme, and 1× Kinase Reaction Buffer. There was a 1 hour incubation prior to read. TR-FRET signal of the interaction (340Ex/665Em/615Em) was read at room temperature with standard setting. Background was subtracted of wells containing no enzyme. Percent inhibition was based on uninhibited controls log (inhibitor) vs. response. Variable slope equation was used with no constraints: Log Y=Bottom+(Top−Bottom)/(1+10^((Log IC50−X)*Hill Slope)).Analytical Instrumentation:NMR: Bruker UltraShield™-300 or Bruker Ascend™-400 spectrometers.LCMS: Shimadzu LCMS-2020 or Agilent technologies 1260 Infinity-6120 Quadrupole LC/MS.Purification:TLC plates: Thin-layer chromatography with E. Merck silica gel 60 F254 pre-coated plates (0.25 mm).Flash chromatography: Agela Technologies CHEETAH-MP200 CH16200 2T-A0099 or Biotage Isolera ISO-PSV ISPS 1832112.

Chain of Receptor-interacting serine/threonine-protein kinase 2 (O43353 whole entry): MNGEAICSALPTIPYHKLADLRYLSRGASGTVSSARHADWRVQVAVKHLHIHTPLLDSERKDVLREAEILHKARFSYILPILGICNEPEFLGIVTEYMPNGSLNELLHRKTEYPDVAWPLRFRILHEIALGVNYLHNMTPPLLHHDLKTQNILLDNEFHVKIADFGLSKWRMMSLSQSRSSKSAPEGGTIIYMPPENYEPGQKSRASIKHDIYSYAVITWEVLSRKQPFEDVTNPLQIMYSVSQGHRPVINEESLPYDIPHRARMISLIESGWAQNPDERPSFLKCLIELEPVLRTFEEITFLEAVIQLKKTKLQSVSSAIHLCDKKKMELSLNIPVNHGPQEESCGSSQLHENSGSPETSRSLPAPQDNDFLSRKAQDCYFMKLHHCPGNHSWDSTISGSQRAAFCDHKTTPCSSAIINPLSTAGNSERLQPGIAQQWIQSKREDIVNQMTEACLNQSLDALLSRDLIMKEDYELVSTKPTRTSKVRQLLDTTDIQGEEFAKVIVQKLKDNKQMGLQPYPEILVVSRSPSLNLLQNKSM

IC50: < 10 nM
Compound: C[C@@H]1[C@H](c2cc3c(Nc4ccc5scnc5c4F)ccnc3s2)CCCN1C
